Data taken from patent US12264175B2, “Compositions and methods for capping RNAS” (Verve Therapeutics, Inc., priority 2020, dated 2025).

System: mouse PCSK9 (mPCSK9)
Test: In vivo base editing in mouse with LNP of sgRNA and capped ABE mRNA (NGS editing efficiency)
Conditions: LNP with sgRNA targeting mPCSK9 and ABE mRNA; mice; FIG. 7
Experimental: Lipid nanoparticles (LNPs) are generated by microfluidic mixing using the Precision Nanosystems NanoAssemblr system according to the manufacturer's protocol, with some optimization for individual payloads. The resulting LNPs are filtered using 0.2-micron filters and stored at 4° C. or frozen at […]
LNPs used in these studies are prepared as described above in Example 6 (A), comprising chemically synthesized sgRNAs targeting the mouse ANGPTL3 (mANGPTL3) and/or mouse PCSK9 (mPCSK9) genes and SpCas9 or ABE8.8 mRNA in a 1:1 weight ratio, are administered to C57BL/6 mice (n=5) intravenously via the lateral tail vein or retro-orbital sinus in a total volume of 5-10 ml/kg. […]
Paired-end reads are analyzed with the CRISPResso2 pipeline (Clement, K. et al., Nat. Biotech. 2019, 37, 224-226). Briefly, low-quality reads are filtered out, adapter sequences are trimmed from the reads, and the paired-end reads are merged and aligned to the amplicon sequence. The editing percentage is calculated as the number of reads supporting […], over the total number of aligned reads. For ABE, the editing percentage is calculated as the number of reads supporting […], over the total number of aligned reads. […]

Question: Which “hepatocyte editing levels as compared to mRNA with 5′ end region motif 1002a” value does the source give for COC1C(OP([O-])(=S)OCC2OC(n3cnc4c(=O)[nH]c(N)nc43)C(O)C2O)C(COP(=O)(O)OP(=O)(O)OP(=O)(O)OCC2OC(n3c[n+](C)c4c(=O)[nH]c(N)nc43)C(O)C2O)OC1n1cnc2c(N)ncnc21 (stereo not shown) [1007a, m^7G(ppp)Am(ps)G] here?
Answer: similar
